≈ marks a conversion by molar mass, not a printed value. Where two headings read alike, the source gives them in different places. Where a SMILES comes first, the peptide text is derived from it. Bridges are numbered along the chain shown (N, C = ends). [ ]: non-standard residue; d: D form. The star is where a group is joined. X1 = CC[C@H](C)CCCCC(=O)*; Dab = NCC[C@H](N)C(=O)O

Data on four compounds can be found in paper PMC6095874, “Discovery of cationic nonribosomal peptides as Gram-negative antibiotics through global genome mining” (Nature Communications, 2018).

Experiment [1] relates to Escherichia coli ATCC 25922. The experiment in a line: microbe, parasite or virus in culture. The experiment is classed as cell-based. The protocol:
(§1) MIC was determined by broth microdilution according to CLSI guidelines. The test medium for most species was Mueller–Hinton broth (MHB). Bacteria were grown overnight to early stationary phase and adjusted in MHB to 5.0 × 10^5 c.f.u. mL^−1 in the wells of 96-well microtiter plates (Falcon® 96-Well Flat-Bottom Microplate, Tissue Culture-Treated), mixed with varying concentrations of test compounds and incubated at 37 °C for 24 h. Cell growth was evaluated by measuring the optical density at 595 nm (Thermo Scientific Multiskan FC multiplate photometer) (Waltham, MA, USA), and the MIC was defined as the lowest compound concentration at which no bacterial growth was observed. MHBs containing 10% fetal bovine serum (Gibco), 21 mM MgCl, or 1.0 mg mL^−1 LPS (lipopolysaccharides from E. coli O55:B5, Sigma-Aldrich) was used to test their inhibitory effects.

Experiment [2] has as its system Pseudomonas aeruginosa PAO1. It counts as cell-based. Here is the method:
as §1

Experiment [3] concerns Colistin-resistant E. coli (E. coli ATCC 25922 carrying mcr-1). Description: MIC by broth microdilution. Conditions: MHB, 37 °C, 24 h. It counts as cell-based, Escherichia coli. Here is the method:
as §1
Background: In broth dilution the organism is exposed to a series of concentrations in liquid medium.

A further experiment deals with E. cloacae NRRL-B-425. The experiment is classed as cell-based, Enterobacter cloacae. The note with it: broth microdilution, MHB, 37 °C, 24 h. The protocol: as §1
For the next experiment, the system named is Saccharomyces cerevisiae. The experiment is classed as cell-based. Conditions: broth microdilution.
Experiment [4] in a line: Peptide binding to LPS by isothermal titration calorimetry. Also noted: species or system Escherichia coli. Conditions: 37 °C, 20 mM HEPES pH 7.0. Here is the method: Microcalorimetric experiments of peptide binding to LPS were performed on an MCS isothermal titration calorimeter (Microcal, Northampton, MA) at 37 °C. LPS was prepared as a 50 µM aqueous suspension in 20 mM HEPES buffer (pH 7.0) by suspension, sonication, and temperature cycling between 5 and 70 °C. This suspension was stored at 4 °C overnight prior to use. Aliquots of 100 µM peptide solutions (brevicidine and polymyxin B) were prepared in the same buffer and all solutions were degassed prior to use by stirring under vacuum for 5 min at 37 °C. After thermal equilibration, 5 µL aliquots of the peptide solution were added every 3 min into the lipid-containing cell at 37 °C with constant stirring. The change in heat during the titration steps was registered in real time and raw data were processed using the Origin® 7 software provided with the instrument. In control experiments, the corresponding peptide solution (or LPS solution) was injected into the buffer without LPS (or without peptide).
(In general: Isothermal titration calorimetry measures the heat released or taken up as one component is titrated into another.)

The next experiment deals with E. coli TOP10 cells. The experiment in a line: Time-kill assay. It counts as cell-based, Escherichia coli. Here is the method:
An overnight culture of E. coli TOP10 cells was diluted 1:10,000 in MHB and incubated at 37 °C with agitation at 180 rpm for 2 h (early exponential). The bacteria were then challenged with brevicidine (20 μg mL^−1), laterocidine (20 μg mL^−1), or polymyxin B (10 μg mL^−1) at ten times the MIC at room temperature without shaking. An untreated sample of cells was used as a negative control. At intervals, 10 μL aliquots were removed, centrifuged at 10,000 × g for 1 min and resuspended in 1.0 mL of sterile PBS. Tenfold serially diluted suspensions were plated on MHB agar plates and incubated at 37 °C overnight. Colonies were counted and the number of c.f.u. per mL was calculated. For analysis of lysis, 300 μL of culture (OD600 = 1.0) were treated with antibiotics at ten times the MIC for 24 h. Experiments were performed in triplicate.

The subject of the next experiment is Candida albicans. It counts as cell-based. Conditions: broth microdilution.
The test system of experiment [5] is Klebsiella pneumoniae NRRL-B-408. Description: MIC by broth microdilution. It counts as cell-based. The note with it: Supplementary Table 1; Kp = Klebsiella pneumoniae NRRL-B-408. Here is the method:
as §1

A further experiment has as its system Acinetobacter baumannii. Description: MIC by broth microdilution. It counts as cell-based. Conditions: Supplementary Table 1. Here is the method: as §1
Another experiment has as its system Bacillus subtilis 168. Description: MIC by broth microdilution. It counts as cell-based. The note with it: Supplementary Table 1; Bs = B. subtilis 168. The protocol: as §1
Experiment [6] has as its system Enterobacter cloacae NRRL-B-413. The experiment in a line: MIC by broth microdilution. Conditions: Supplementary Table 1; En = Enterobacter cloacae NRRL-B-413. It counts as cell-based. The protocol: as §1
Experiment [7] has as its system Staphylococcus aureus (MRSA). It counts as cell-based. The note with it: Supplementary Table 1; MRSA = Methicillin-resistant Staphylococcus aureus ATCC 43300. The protocol:
as §1

In experiment [8] the test system is K. pneumoniae NRRL-B-3521. The experiment is classed as cell-based, Klebsiella pneumoniae. The note with it: broth microdilution, MHB, 37 °C, 24 h. Here is the method: as §1
Another experiment concerns E. coli ATCC 25922. The experiment in a line: Resistance acquisition during serial passaging. Conditions: subinhibitory concentrations, 30-day period, MHB, 37 °C, quadruplicate. The experiment is classed as cell-based, Escherichia coli. Here is the method:
E. coli ATCC 25922 was inoculated into MHB overnight at 37 °C with continuous shaking. Cells were diluted 10,000 times in MHB to about 1 × 10^6 c.f.u. mL^−1. Ten µL aliquots were drawn to a 96-well plate containing 90 µL of serially diluted brevicidine, laterocidine, and ciprofloxacin, at final concentrations of 0.5×, 1×, 1.5×, 2×, and 4× MIC. […] Plates with bacteria were incubated at 37 °C without shaking. […] This process was repeated for 30 days, and the final MIC was confirmed by the same antibacterial assay as the one described above. The experiment was performed in quadruplicate, and on each day, the sample that developed the highest resistance was measured to plot the curve. For single-step resistance, E. coli ATCC 25922 cells at 10^8 c.f.u. were plated onto Mueller–Hinton agar containing 4× MIC of brevicidine.

For the compound `CC[C@H](C)CCCCC(=O)N[C@@H](CCN)C(=O)N[C@H](C(=O)N[C@@H](CCN)C(=O)N[C@H]1CCNC(=O)[C@H]([C@@H](C)O)NC(=O)[C@H](CCN)NC(=O)[C@H](CCN)NC(=O)[C@H](CC(C)C)NC(=O)[C@@H](CC(C)C)NC(=O)[C@H](CCN)NC1=O)[C@@H](C)O` [Colistin, reference compound] (X1-[Dab]T[Dab][Dab][Dab][dL]L[Dab][Dab]T; lactam 4-C (inferred); N-terminus assumed), the MIC in [1] (broth microdilution (CLSI), MHB, 5.0 × 10^5 c.f.u. mL^−1, 37 °C, 24 h, OD 595 nm) worked out at 2 µg/mL (≈ 1.71 µM); in [2] (broth microdilution, MHB, 37 °C, 24 h), 1 µg/mL (≈ 0.855 µM); in experiment [3] it was 16 µg/mL (≈ 13.7 µM).

Regarding `C[C@H]1COc2c(N3CCN(C)CC3)c(F)cc3c(=O)c(C(=O)O)cn1c23` [Levofloxacin], the MIC in [1] (Escherichia coli, ATCC25922, positive control of the mouse thigh model infected with E. coli ATCC 25922, strain for MIC not stated explicitly, read-out: MIC) was 0.032 µg/mL (≈ 0.0886 µM).

As for `CC[C@H](C)CCCCC(=O)N[C@@H](CCN)C(=O)N[C@H](C(=O)N[C@@H](CCN)C(=O)N[C@H]1CCNC(=O)[C@H]([C@@H](C)O)NC(=O)[C@H](CCN)NC(=O)[C@H](CCN)NC(=O)[C@H](CC(C)C)NC(=O)[C@@H](Cc2ccccc2)NC(=O)[C@H](CCN)NC1=O)[C@@H](C)O` [Polymyxin B, reference compound] (X1-[Dab]T[Dab][Dab][Dab][dF]L[Dab][Dab]T; lactam 4-C (inferred); N-terminus assumed), the MIC with E. cloacae NRRL-B-425 was 64 µg/mL (≈ 53.2 µM); against Saccharomyces cerevisiae, greater than 64 µg/mL; against Candida albicans, greater than 64 µg/mL; in [3], 16 µg/mL (≈ 13.3 µM); in experiment [8], 2 µg/mL (≈ 1.66 µM). Besides, in [1] (Supplementary Table 1, Ec = Escherichia coli ATCC 25922), the “MIC, Ec” value was found to be 1 µg/mL (≈ 0.831 µM). Also, the “binding to LPS (ITC)” value in [4] is recorded as “strong binding to LPS”. Besides, the “time to kill all cells in time-kill assay” value in the experiment with E. coli TOP10 cells (ten times the MIC (polymyxin B 10 μg mL^−1)) is reported as no more than 30 min. For the same compound, the “cell viability in time-kill assay” value in the experiment with E. coli TOP10 cells (ten times the MIC, early exponential cells, room temperature, c.f.u. counts, triplicate) was “significantly reducing the viable cell population after 5 min”. In experiment [5], the “MIC, Kp” value stood at 16 µg/mL (≈ 13.3 µM). In addition, in the experiment on Acinetobacter baumannii, the “MIC, Ab” value came to 4 µg/mL (≈ 3.32 µM). For the same compound, the “MIC, Bs” value with Bacillus subtilis 168 came to 4 µg/mL (≈ 3.32 µM). In experiment [6], the “MIC, En” value was determined as 8 µg/mL (≈ 6.65 µM). Further, the “MIC, MRSA” value in [7] worked out at 32 µg/mL (≈ 26.6 µM). Also, the “MIC, Pa” value in [2] (Supplementary Table 1, Pa = Pseudomonas aeruginosa PAO1) turned out to be 1 µg/mL (≈ 0.831 µM).

On to `O=C(O)c1cn(C2CC2)c2cc(N3CCNCC3)c(F)cc2c1=O` [ciprofloxacin, reference compound], for which, in the experiment with E. coli ATCC 25922, the “resistance development during serial passaging” value is on record as “developed resistance”.
